A short description of data set [1]: Acetic acid distribution coefficient study: solvents for recovering acetic acid from the permeate. The class given is physicochemical.
The nature of data set [2]: Distribution coefficients of mixed solvents. Format: physicochemical. Particulars: oleyl alcohol 10 cc plus Cyc or TBP.
The mark [3] stands for this setting: aqueous phase after contact with the solvent.

Read-outs that look alike come from different tables or passages of the source.

With `CCCCC(CC)CO` (centres unmarked) [2-ethyl-1-hexanol], the “Equilibrium Aqueous Acetic Acid Concentration” value in data set [1] (setting [3]) stood at 3.308 g/L. The “Acetic Acid Distribution Coefficients” value in data set [1] (solvent vs aqueous phase) was found to be 0.77.

Regarding `CC1CCCC(O)C1` (centres unmarked) [3-methylcyclohexanol], in data set [1] (setting [3]), the “Equilibrium Aqueous Acetic Acid Concentration” value turned out to be 2.110 g/L. For the same compound, the “Acetic Acid Distribution Coefficients” value in data set [1] (solvent vs aqueous phase) is on record as 1.26.

As for `ClC(Cl)Cl` [Chloroform], in data set [1], the “Acetic Acid Distribution Coefficients” value was 0.09 and the “Equilibrium Aqueous Acetic Acid Concentration” value turned out to be 5.128 g/L.

Consider `O=C1CCCCC1` [Cyclohexanone], for which, in data set [1] (setting [3]), the “Equilibrium Aqueous Acetic Acid Concentration” value came out at 2.702 g/L. In addition, the “Acetic Acid Distribution Coefficients” value in data set [1] (solvent vs aqueous phase) is given as 1.66.

For the compound `CCCCCCCCCC` [Decane], the “Equilibrium Aqueous Acetic Acid Concentration” value in data set [1] (setting [3]) came to 5.968 g/L. Further, the “Acetic Acid Distribution Coefficients” value in data set [1] (solvent vs aqueous phase) was 0.08.

As to `CCCCOP(=O)(O)OCCCC` [Dibutyl phosphate], in data set [1], the “Acetic Acid Distribution Coefficients” value was found to be 0.18 and the “Equilibrium Aqueous Acetic Acid Concentration” value is on record as 4.615 g/L.

Regarding `CCCCCCCCCCCC` [Dodecane], the “Equilibrium Aqueous Acetic Acid Concentration” value in data set [1] (setting [3]) worked out at 4.654 g/L. Besides, the “Acetic Acid Distribution Coefficients” value in data set [1] (solvent vs aqueous phase) was found to be 0.13.

Take `CCCCCCCCCCCCOC(C)=O` [Dodecyl acetate]: the “Equilibrium Aqueous Acetic Acid Concentration” value in data set [1] (setting [3]) is listed as 5.787 g/L. The “Acetic Acid Distribution Coefficients” value in data set [1] (solvent vs aqueous phase) stood at 0.15.

With `CCOC(C)=O` [Ethyl acetate], the “Equilibrium Aqueous Acetic Acid Concentration” value in data set [1] (setting [3]) came out at 4.550 g/L. Further, the “Acetic Acid Distribution Coefficients” value in data set [1] (solvent vs aqueous phase) came out at 0.41.

Take `CCCC(=O)OCC` [Ethyl butyrate]: in data set [1] (setting [3]), the “Equilibrium Aqueous Acetic Acid Concentration” value was 4.665 g/L. Further, the “Acetic Acid Distribution Coefficients” value in data set [1] (solvent vs aqueous phase) is given as 0.42.

Take `CCCCCCCCCCCCCCCC` [Hexadecane]: in data set [1] (setting [3]), the “Equilibrium Aqueous Acetic Acid Concentration” value is on record as 5.866 g/L. For the same compound, in data set [1] (solvent vs aqueous phase), the “Acetic Acid Distribution Coefficients” value is on record as 1.13.

With `CCCCCC` [Hexane], in data set [1], the “Acetic Acid Distribution Coefficients” value is given as 0.0 and the “Equilibrium Aqueous Acetic Acid Concentration” value amounted to 6.559 g/L.

Consider `CCCCCCCCO` [Octanol], for which the “Equilibrium Aqueous Acetic Acid Concentration” value in data set [1] (setting [3]) amounted to 4.358 g/L. Further, the “Acetic Acid Distribution Coefficients” value in data set [1] (solvent vs aqueous phase) was 0.45.

As for `CCCCCCCC/C=C\CCCCCCCCO` [Oleyl alcohol], the “Distribution Coefficients” value in data set [2] was 0.17. Moreover, the “Equilibrium Aqueous Acetic Acid Concentration” value in data set [1] (setting [3]) is 5.114 g/L. Also, the “Acetic Acid Distribution Coefficients” value in data set [1] (solvent vs aqueous phase) is on record as 0.28.

Regarding `CCCCCCCCN(CCCCCCCC)CCCCCCCC` [Trioctylamine], in data set [1] (setting [3]), the “Equilibrium Aqueous Acetic Acid Concentration” value came out at 3.785 g/L. Besides, the “Acetic Acid Distribution Coefficients” value in data set [1] (solvent vs aqueous phase) is listed as 0.31.

Consider `CCCCCCCCCCCO` [Undecyl alcohol], for which the “Equilibrium Aqueous Acetic Acid Concentration” value in data set [1] (setting [3]) was determined as 4.528 g/L. Also, the “Acetic Acid Distribution Coefficients” value in data set [1] (solvent vs aqueous phase) is on record as 0.40.

As to Dexyl alcohol, the “Equilibrium Aqueous Acetic Acid Concentration” value in data set [1] (setting [3]) was determined as 3.890 g/L. In addition, the “Acetic Acid Distribution Coefficients” value in data set [1] (solvent vs aqueous phase) is reported as 0.42.

Values taken from patent US6340581B1, “Biological production of products from waste gases” (Bioengineering Resources, Inc., priority 1992, dated 2002).
